By Papp is commonly meant the rate of passage across a membrane or cell layer, normalised by area and donor concentration. Lower therefore signals poor permeation.

Each structure is given as a SMILES string. *1 amine or outer side, *2 acyl side, *3 side chain or, on linkers, in order; H or OH if unused. Where a SMILES comes first, the peptide text is derived from it. Bridges are numbered along the chain shown (N, C = ends). [ ]: non-standard residue; d: D form. The star is where a group is joined. Phe(3-OMe,4-CONHMs) = COc1cc(C[C@H](N)C(=O)O)ccc1C(=O)NS(C)(=O)=O; hPhe(3-OMe,4-CONHMe) = CNC(=O)c1ccc(CC[C@H](N)C(=O)O)cc1OC; NMePhe(3-Cl) = CN[C@@H](Cc1cccc(Cl)c1)C(=O)O; X12 = O=C([C@H](CCCC(O)C(F)(F)F)N[*:1])[*:2]; Tyr(3-F) = N[C@@H](Cc1ccc(O)c(F)c1)C(=O)O; Propyl(2,2-Me2,3-OH) = CC(C)(CO)C*; NMeF = CN[C@@H](Cc1ccccc1)C(=O)O; NMeGABA = CN(CCCC(=O)[*:2])[*:1]; NMeI = CC[C@H](C)[C@H](NC)C(=O)O; NMeL = CN[C@@H](CC(C)C)C(=O)O; Butyl(3S-OH) = C[C@H](O)CC*; NMeV = CN[C@H](C(=O)O)C(C)C; NMeA = CN[C@@H](C)C(=O)O; Piperidide = C1CCN(*)CC1; CH2CONHMe = CNC(=O)C*; NBuGly = CCCCNCC(=O)O; NPrGly = CCCNCC(=O)O; Propyl(3-OH) = OCCC*; X3 = C[C@H](O)C*; Sar = CNCC(=O)O

A short description of the first data set: in vitro. The settings on record: human, Caco-2, Caco-2 (cm/sec).
Compound `CC[C@H](C)[C@@H]1NC(=O)[C@H](CC(C)C)N(C)C(=O)CCCN(C)C(=O)C[C@@H](C(=O)N2CCCCC2)NC(=O)[C@H](CC(C)C)N(C)C(=O)[C@H](CC(C)C)N(C)C(=O)[C@H]([C@@H](C)O)NC(=O)[C@H](CC(C)C)N(C)C(=O)[C@H](Cc2ccc(C(=O)NS(C)(=O)=O)c(OC)c2)NC(=O)[C@H](CC(C)C)N(C)C(=O)[C@H](Cc2ccccc2)N(C)C1=O` [AP138] ([NMeGABA][NMeL]I[NMeF][NMeL][Phe(3-OMe,4-CONHMs)][NMeL]T[NMeL][NMeL]D-Piperidide; lactam N-11) returned a Papp of 0.06 ×10⁻⁶ cm/s.

Consider `CCCCN1CC(=O)N(C)[C@@H](CC(C)C)C(=O)N[C@H](C(=O)N2CCCCC2)CC(=O)N(C)[C@@H](C)C(=O)N[C@@H](COCC[C@H](C)O)C(=O)N(C)[C@@H](CC(C)C)C(=O)N(C)[C@@H](Cc2cccc(Cl)c2)C(=O)N[C@@H](CC(C)C)C(=O)N(C)[C@@H](Cc2ccccc2)C(=O)N(C)[C@@H](C(C)C)C(=O)N[C@@H]([C@@H](C)O)C1=O` [AP103] ([NMeA]S(Butyl(3S-OH))[NMeL][NMePhe(3-Cl)]L[NMeF][NMeV]T[NBuGly][NMeL]D-Piperidide; lactam N-11), for which the Papp is 0.89 ×10⁻⁶ cm/s. Against the preceding compound, the Papp is about 15-fold higher.

Turning to `CNC(=O)c1ccc(CC[C@@H]2NC(=O)[C@H](CC(C)C)N(C)C(=O)CN(C)C(=O)[C@H]([C@@H](C)O)NC(=O)[C@H](CC(C)C)N(C)C(=O)[C@H](CC(C)C)NC(=O)[C@H](Cc3ccccc3)N(C)C(=O)[C@@H](C(C)C)NC(=O)C[C@@H](C(=O)N3CCCCC3)NC(=O)[C@H](CC(C)C)N(C)C(=O)[C@H](CC(C)C)N(C)C2=O)cc1OC` [AP200] ([dV][NMeF]L[NMeL]T[Sar][NMeL][hPhe(3-OMe,4-CONHMe)][NMeL][NMeL]D-Piperidide; lactam N-11), the Papp stood at 0.88 ×10⁻⁶ cm/s. This Papp and that of the compound before are within 1.5-fold of each other.

For the compound `CC(C)C[C@H]1C(=O)N[C@H](C(=O)N2CCCCC2)CC(=O)N(C)[C@@H](C)C(=O)N[C@@H](Cc2ccc(O)c(F)c2)C(=O)N(C)[C@@H](CC(C)C)C(=O)N(C)[C@@H](CC(C)C)C(=O)N[C@@H](C(C)C)C(=O)N(C)[C@@H](Cc2ccccc2)C(=O)N(C)[C@@H](CC(C)C)C(=O)N[C@@H]([C@@H](C)O)C(=O)N(C)CC(=O)N1C` [pd122] ([NMeA][Tyr(3-F)][NMeL][NMeL]V[NMeF][NMeL]T[Sar][NMeL]D-Piperidide; lactam N-11), the Papp was determined as 0.46 ×10⁻⁶ cm/s. This Papp lies about 1.9-fold lower than the previous one.

For `CC(C)C[C@@H]1NC(=O)[C@H](Cc2ccccc2)N(C)C(=O)[C@@H](C(C)C)NC(=O)C[C@@H](C(=O)N2CCCCC2)NC(=O)[C@H](CC(C)C)N(C)C(=O)[C@H](Cc2cccc(Cl)c2)N(C)C(=O)[C@H](COCCCO)NC(=O)[C@H](CC(C)C)N(C)C(=O)CN(C)C(=O)[C@H]([C@@H](C)O)NC(=O)[C@H](CC(C)C)N(C)C1=O` [AP90] ([dV][NMeF]L[NMeL]T[Sar][NMeL]S(Propyl(3-OH))[NMePhe(3-Cl)][NMeL]D-Piperidide; lactam N-11), the Papp is 3.3 ×10⁻⁶ cm/s.

`CCCN1CC(=O)N(C)[C@@H](CC(C)C)C(=O)N[C@H](C(=O)N2CCCCC2)CC(=O)N(C)[C@@H](C)C(=O)N[C@@H](COC[C@H](C)O)C(=O)N(C)[C@@H](CC(C)C)C(=O)N(C)[C@@H](Cc2cccc(Cl)c2)C(=O)N[C@@H](CC(C)C)C(=O)N(C)[C@@H](Cc2ccccc2)C(=O)N(C)[C@@H]([C@@H](C)CC)C(=O)N[C@@H]([C@@H](C)O)C1=O` [AP65] ([NMeA]S(X3)[NMeL][NMePhe(3-Cl)]L[NMeF][NMeI]T[NPrGly][NMeL]D-Piperidide; lactam N-11): the Papp is 1.2 ×10⁻⁶ cm/s. Against the preceding compound, the Papp is about 2.8-fold lower.

Consider `CCCCN1CC(=O)N(C)[C@@H](CC(C)C)C(=O)N[C@H](C(=O)N2CCCCC2)CC(=O)N(C)[C@@H](C)C(=O)N[C@@H](COCC(C)(C)CO)C(=O)N(C)[C@@H](CC(C)C)C(=O)N(C)[C@@H](Cc2ccccc2)C(=O)N[C@@H](C(C)C)C(=O)N(C)[C@@H](Cc2ccccc2)C(=O)N(C)[C@@H](CC(C)C)C(=O)N[C@@H]([C@@H](C)O)C1=O` [AP121] ([NMeA]S(Propyl(2,2-Me2,3-OH))[NMeL][NMeF]V[NMeF][NMeL]T[NBuGly][NMeL]D-Piperidide; lactam N-11), for which the Papp was 3.1 ×10⁻⁶ cm/s.

Still in this data set, the particulars now being: human, Caco-2, Caco-2 (membrane permeability).
The compound `CC[C@H](C)[C@H]1C(=O)N[C@@H]([C@@H](C)O)C(=O)N(C)CC(=O)N(C)[C@@H](CC(C)C)C(=O)N[C@H](C(=O)N2CCCCC2)CC(=O)N(C)[C@@H](C(C)C)C(=O)N[C@@H](CC(C)C)C(=O)N(C)[C@@H](CC(C)C)C(=O)N(C)[C@@H](Cc2ccccc2)C(=O)N[C@@H](CCCC(O)C(F)(F)F)C(=O)N(C)[C@@H](Cc2ccccc2)C(=O)N1C` (stereo partly drawn) [Compound D05] ([NMeV]L[NMeL][NMeF][X12][NMeF][NMeI]T[Sar][NMeL]D-Piperidide; lactam N-11) registered a Papp of 0.36 ×10⁻⁶ cm/s.

`CCCCN1CC(=O)N(C)[C@@H](Cc2ccccc2)C(=O)N[C@@H](COCC(=O)NC)C(=O)N(C)[C@@H](CC(C)C)C(=O)N[C@@H]([C@@H](C)O)C(=O)N(CCC)CC(=O)N(C)[C@@H](Cc2ccccc2)C(=O)N(C)[C@@H](CC(C)C)C(=O)N[C@@H](CC(C)C)C(=O)N(C)[C@@H](CC(C)C)C(=O)N[C@H](C(=O)N2CCCCC2)CC1=O` [Compound I05] ([NBuGly][NMeF]S(CH2CONHMe)[NMeL]T[NPrGly][NMeF][NMeL]L[NMeL]D-Piperidide; lactam N-11) returned a Papp of 0.8 ×10⁻⁶ cm/s.

(Values after patent US20230096766A1, “AMINO ACID HAVING FUNCTIONAL GROUP CAPABLE OF INTERMOLECULAR HYDROGEN BONDING, PEPTIDE COMPOUND CONTAINING SAME AND METHOD FOR PRODUCTION THEREOF” (Chugai Seiyaku Kabushiki Kaisha, priority 2018, published 2023).)
